Measured values: PubChem BioAssay AID179 (DTP/NCI, 2004)
Where “and” joins values, the source holds several entries; their conditions need not be identical. Equal values may be shown once. Calls of active or inactive are those of the source.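 How the source made its calls: active means compounds giving half or more protection of infected cells from virus-caused growth loss, again on retest; inactive means the rest.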

Tested on: CEM cells HIV-1 protection, formazan growth assay
Assay: NCI AIDS Antiviral Assay
Details: for IC50: measured here: growth of uninfected CEM cells
In short: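 Protection of CEM cells against HIV-1 was scored from cell growth (soluble formazan) across five concentrations, with parallel uninfected cells. Lack of protection may reflect toxicity.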

Row | Compound | EC50 [µM] | IC50 | outcome
1 | CCC(C)(C)/C(CC(O)(C(F)(F)F)C(F)(F)F)=N\O | > 200 | > 200 µM | 
2 | C/C(=N/NC(=S)N1CCCC1)c1cccc(/C(C)=N\NC(=S)N2CCCC2)n1 | > 2 | 0.123 µM | 
3 | CC1(C)C(=O)/C=C\C(=O)C(C)(C)C(=O)/C=C\C(=O)C(C)(C)C2=CC=C(O2)C(C)(C)C(=O)/C=C\C1=O |  |  | inactive
4 | CN(NC(=O)CCCl)C1=NCCN1 | > 200 | > 200 µM | 
5 | CC(C)c1oc2ccccc2c1C(=O)c1ccc(O)cc1 | > 148 | 13.2 µM | 
6 | COc1ccc(N(c2ccc(C#N)cc2)c2ccc(C#N)cc2)cc1 | > 45.7 | 33.1 µM | 
7 | COc1ccc(OCc2nc3ccccc3[nH]2)cc1 | > 200 | > 200 µM | 
8 | Cc1cn(C2CC(O)C(CNC(=O)NO)O2)c(=O)[nH]c1=O (configuration not stated) | > 200 | > 200 µM | 
9 | C=C(C)C12CC3/C(=N\O)C(C1)C(C)C(/C3=N\O)[C@@]2(C)O (some centres not stated) | > 200 | > 200 µM | 
10 | Cc1nc(Nc2ccccc2C)c2ccsc2n1 | > 263 | > 263 µM | 
11 | CCN(CCCl)c1cc(CN(C)C)cc(NC(=O)c2ccc(C(=O)Nc3cc(CN(C)C)cc(N(CC)CCCl)c3)cc2)c1 | > 2 | 0.000631 µM | 
12 | O=C(O)c1c(O)c2cc(Br)ccc2oc1=O | > 200 | 120 µM | 
13 | N#C/C(=C\c1ccc(O)c(O)c1)C(=O)NCCCCCCCCNC(=O)/C(C#N)=C/c1ccc(O)c(O)c1 | > 200 | 13.8 µM | 
14 | Cc1ncc(-c2nnnn2-c2ccccc2)c(C(=O)O)n1 | > 200 | > 200 µM | 
15 | CC(C)[C@@H]1CC[C@@H](C)C[C@H]1OC(=O)c1c2n(c3ccccc13)C[C@H]1OC(C)(C)O[C@@H]21 | > 100 | 77.6 µM | 
16 | c1ccc(SC(CCCCOC2CCCCO2)Sc2ccccc2)cc1 (configuration not stated) |  |  | inactive
17 | O=C1C=C(C2CCCO2)C(=O)c2c(O)ccc(O)c21 (configuration not stated) |  |  | inactive
18 | COC1(C)CCC(OS(C)(=O)=O)CO1 (configuration not stated) | > 200 | > 200 µM | 
19 | N#C/C=C/c1ccc(C#N)cc1 | > 64.6 | > 64.6 µM | 
20 | Cc1[nH]nc(N)c1C#N | > 200 | 191 µM | 
21 | COc1cc(CC(C)NC(C)=O)cc(OC)c1 (configuration not stated) | > 200 | > 200 µM | 
22 | CC1(Br)OC(=O)C(C)(Br)OC1=O (configuration not stated) | > 200 | > 200 µM | 

Row | Compound | EC50 [µM] | IC50 | outcome
23 | N#Cc1c(=O)[nH]c(=O)n2c1[nH]c1ccccc12 | > 200 | > 200 µM | 
24 | C[N+](C)(CCOc1ccccc1)Cc1cccs1 | > 200 | > 200 µM | 
25 | CCC1=C(C(C)=O)[C@@H]2CCCCC[C@@H](C(=O)OC)C2C1=O (some centres not stated) | 191 | > 200 µM | 
26 | CNC1C(O)CC(OC2C/C=C(\C)C/C(C)=C/C=C/CCC(C)CNC(=O)/C=C/C=C/C2C)OC1C (configuration not stated) | > 37.2 | 1.95 µM | 
27 | CCc1c(O)cc(=O)oc1-c1ccc(OC)c(OC)c1 | > 200 | > 200 µM | 
28 | O=C(OCc1ccccc1)c1ccc(NCc2cc(O)ccc2O)cc1 |  |  | inactive
29 | CC[C@H]1CN2CCc3cc(OC)c(OC)cc3[C@@H]2C[C@@H]1C[C@H]1NCCc2cc(OC)c(OC)cc21 |  |  | inactive
30 | O=c1[nH]c(=O)n(C2CC(O)C(COP(=O)(On3nnc4ccccc43)N3CCCCC3)O2)cc1F (configuration not stated) | > 200 | 0.0631 µM | 
31 | CCCCCNC(=O)C1C(=O)N(CCCCC)C(=O)/C1=N\N (configuration not stated) | > 12 | > 12 µM | 
32 | Cc1ccnc2c1NC(=O)c1cccnc1N2C1CC1 | 0.0437 | 195 µM | 
33 | CSCCC(NC(=O)c1ccccc1C(=O)O)C(=O)O (configuration not stated) | > 200 | > 200 µM | 
34 | CCOC(=O)c1cnn2c1ncc1c(=O)n(NC(N)=O)ccc12 | > 200 | > 200 µM | 
35 | CCCCCC=C(c1cc(Cl)c(O)c(C(=O)O)c1)c1cc(Cl)c(O)c(C(=O)O)c1 | > 95.5 | > 95.5 µM | 
36 | CC(=O)Nc1ccccc1S(=O)c1ccccc1 (configuration not stated) | > 229 | > 229 µM | 
37 | N#CNC1=NC(C(=O)O)CC(=O)N1CCc1c[nH]c2ccccc12 (configuration not stated) | > 200 | 50.1 µM | 
38 | COc1ccc(N2C(=O)C3c4[nH]c5ccc(C)cc5c4C4CCC(C(C)(C)C)CC4C3C2=O)cc1 (configuration not stated) | 12 | 47.9 µM | 
39 | O=S(=O)(O)C(C(I)I)S(=O)(=O)O | > 200 | > 200 µM | 
40 | COc1cc([N+](=O)[O-])c(S(=O)(=O)O)cc1-n1nc(C(=O)Nc2ccccc2)n[n+]1-c1cc(S(=O)(=O)[O-])c([N+](=O)[O-])cc1OC | > 372 | 288 µM | 
41 | COc1cccc(-c2cc(=O)c3cc(C)c(C)c(C(=O)O)c3o2)c1 |  |  | inactive
42 | CN(C)c1ccc(C2NCCc3c2[nH]c2ccccc32)cc1 (configuration not stated) | > 200 | 25.1 µM | 
43 | CC(C)[Si](OCC1CC(C[C@H]2CC(C[C@H]3C[C@@H](CO[Si](C(C)C)(C(C)C)C(C)C)OC(C)(C)O3)OC(C)(C)O2)OC(C)(C)O1)(C(C)C)C(C)C (some centres not stated) | > 200 | > 200 µM | 
44 | O=C(CC(=O)Nc1ccccc1)NNC(Sc1ccccc1)c1cc(N=Nc2ccc(Br)cc2)ccc1O (configuration not stated) |  |  | inactive

Row | Compound | EC50 [µM] | IC50 | outcome
45 | C[C@@H]1C(=O)OCC2=C3C[C@@H](CC[C@@]3(C)C=CC2=O)[C@H](C)C(=O)OCC2=C3C[C@H]1CC[C@@]3(C)C=CC2=O | > 24.5 | 21.4 µM | 
46 | C[N+](C)(C)C=Nc1cccc2c1CCCC2 | > 200 |  | 
47 | O=C(Nc1ccc(-c2ccccc2)oc1=O)c1ccccc1 | > 100 | > 100 µM | 
48 | CCCCCCCCCCCCCCCC(=O)NCC(COP(=O)([O-])OCC[N+](C)(C)C)OC (configuration not stated) |  |  | inactive
49 | CCN(CC)C1CC(O[C@H]2C[C@](O)(C(=O)CO)Cc3c(O)c4c(c(O)c32)C(=O)c2c(OC)cccc2C4=O)OC(C)C1O (some centres not stated) |  |  | inactive
50 | CC[n+]1c(/C=C/c2ccc(N(CCCl)CCCl)cc2)ccc2cc(Br)ccc21 |  |  | inactive
51 | CC(C)=CCSC1CC2C(CC1(C)O)C2(C)C (configuration not stated) | > 200 | 110 µM and 112 µM | 
52 | CN(C)c1ccc(/C(=N\N)c2ccccc2)cc1 | > 200 | 112 µM | 
53 | COc1cc(OC)c2c(C)cc(=O)oc2c1 | > 200 | > 200 µM | 
54 | CCOC(=O)/C(=C\c1ccccc1)[Se]c1ccccc1 | > 56.2 | > 56.2 µM | 
55 | O=C(NNC(=O)c1ccccn1)c1ccccn1 | > 200 | 4.68 µM | 
56 | CC(C)(C)OC(=O)N(CCNS(=O)(=O)c1cccc2cnccc12)CCC(=O)ON1C(=O)CCC1=O | > 200 | > 200 µM | 
57 | O=c1n(C2CCCCC2)c(=C(Cl)Cl)c(=C(Cl)Cl)n1C1CCCCC1 | > 200 | > 200 µM | 
58 | O=C1CCCCC/C1=C\c1cccc(Cl)c1 | > 200 | 28.8 µM | 
59 | CCCCCCCCCCCc1c(O)c(O)cc2nc3cc(C(=O)NC(C(=O)O)C(C)C)ccc3nc12 (configuration not stated) | > 14.1 | > 14.1 µM | 
60 | Cn1ccc(C(=O)NCCN(CCNC(=O)c2ccn(C)c(=O)c2O)CCNC(=O)c2cccc(=O)n2O)c(O)c1=O | > 200 | > 200 µM | 
61 | Cc1ccc2nc(C(=O)O)c(=O)[nH]c2c1 |  |  | inactive
62 | COc1cc(C#N)c(NC(=S)N2CCN(C(=O)c3ccco3)CC2)cc1OC | > 200 | 120 µM | 
63 | COc1ccccc1NC(=S)Nc1cc(C)cc(C)n1 | > 200 | > 200 µM | 
64 | COc1ccccc1/C=C\C#N | > 85.1 | > 85.1 µM | 
65 | O=[N+]([O-])c1cc(Cc2cc(Cl)c(O)c([N+](=O)[O-])c2)cc(Cl)c1O | > 200 | 35.5 µM | 
66 | COC(=O)[C@H](Cc1ccccc1)NC(=O)N1CCCN(C(=O)N[C@@H](Cc2ccccc2)C(=O)OC)CCCN(C(=O)N[C@@H](Cc2ccccc2)C(=O)OC)CCC1 | > 100 | 27.5 µM | 

Row | Compound | EC50 [µM] | IC50 | outcome
67 | Cc1c2oc3c(C)ccc(C(=O)NC4C(=O)NC(C(C)C)C(=O)N5CCCC[C@H]5C(=O)N(C)CC(=O)N(C)[C@@H](C(C)C)C(=O)OC4C)c3nc-2c(C(=O)NC2C(=O)N[C@H](C(C)C)C(=O)N3CCCC[C@H]3C(=O)N(C)CC(=O)N(C)C(C(C)C)C(=O)OC2C)c(N)c1=O (some centres not stated) | > 2 | 0.00331 µM | 
68 | O=c1oc2ccccc2c(O)c1/C=N\c1nc(-c2ccccc2)cs1 | > 200 | 3.39 µM | 
69 | C=CCC(C)C(=O)CP1(=O)OC(C)CCN1C(C)(C)C (configuration not stated) |  |  | inactive
70 | C/C(O)=C/c1nc2sc(C)c(C)c2c(=O)s1 | > 200 | 39.8 µM | 
71 | O=[N+]([O-])c1ccc2nc(/C=C(\O)c3ccccc3)c(/C=C(\O)c3ccccc3)nc2c1 | > 200 | 20 µM | 
72 | N#CNC(=NCCO)NCCO | > 525 | > 525 µM | 
73 | Cc1cc(NC(=O)c2ccc(NC(=O)c3ccccc3)cc2)ccc1N=Nc1ccc(N=Nc2ccc3c(O)cc(S(=O)(=O)O)cc3c2)c2cc(S(=O)(=O)O)ccc12 | 6.17 | 50.1 µM | 
74 | O=C1CC(c2ccc(Cl)cc2)C2(C(=O)NC(=O)NC2=O)C(c2ccc(Cl)cc2)C1 (configuration not stated) | > 75.9 | 34.7 µM | 
75 | CC(=O)OC1COC(n2c3ccccc3c3ccc4c5ccccc5[nH]c4c32)C(OC(C)=O)C1OC(C)=O (configuration not stated) | > 117 | 115 µM | 
76 | O=C1C(=O)N(c2cccc(C(F)(F)F)c2)C(=O)C(=O)C1c1nc2ccccc2s1 | > 44.7 | > 44.7 µM | 
77 | CCCCc1ccc(Nc2nc(Cl)c3c(ncn3COCCOC(C)=O)n2)cc1 | > 200 | 33.1 µM | 
78 | Cn1cnc([N+](=O)[O-])c1Sc1nc2cc(Cl)c(F)cc2[nH]1 | > 8.32 | 3.09 µM | 
79 | CCOC(=O)c1cc(C2(O)CCN(CC(C)CC)C2=O)c(-c2cc(C)no2)[nH]1 (configuration not stated) | > 200 | > 200 µM | 
80 | COc1ccc(/C=C/C(=O)C(C)(C)C)cc1 |  |  | inactive
81 | CN(C)c1ccc(/C=C(\C#N)C(N)=C(C#N)C#N)cc1 | 132 | > 200 µM | 
82 | Cc1nc2ccccc2c2c(N)cccc12 | > 200 | > 200 µM | 
83 | S=c1sc2sc(=S)sc2s1 |  |  | inactive
84 | COc1cc([N+](=O)[O-])cc2c1NC(=O)C2(C)SC (configuration not stated) | > 200 | 30.9 µM | 
85 | CCSc1nn(-c2c3ccccc3nc3ccccc23)c(=S)s1 | > 200 | 102 µM | 
86 | CCOC(=O)CCC(NC(=O)c1ccc(NCc2ccc3nc(-c4ccccc4)c(Cl)nc3c2)cc1)C(=O)OCC (configuration not stated) | > 4.79 | > 4.79 µM | 
